Laboratory results: patent publication US6511961B1, “Cyclic peptides and medicinal use thereof” (Toray Industries, Inc., priority 1997, dated 2003)
Read-outs that look alike come from different tables or passages of the source.

Settings: 20-membered ring

## CC[C@H](C)[C@@H]1NC(=O)[C@@H](N)CSSC[C@@H](C(=O)O)NC(=O)[C@H](CC(C)C)NC(=O)[C@H](CC2CCCCC2)NC(=O)[C@H](CC(=O)O)NC1=O [C*IDChaLC*]
From H-Cys(Acm)-Ile-Asp-Cha-Leu-Cys(Acm)-OH, disulfide bond, AgOTf/anisole/TFA, then DMSO/HCl, 50% DMSO-1N HCl, 2 steps
  ring closure, yield after HPLC: 34%

## CC(C)C[C@@H]1NC(=O)[C@H](Cc2c[nH]cn2)NC(=O)[C@H](CC(=O)O)NC(=O)[C@H](C2CCCCC2)NC(=O)[C@@H](N)CSSC[C@@H](C(=O)O)NC1=O [C*ChgDHLC*]
From H-Cys(Acm)-Chg-Asp-His-Leu-Cys(Acm)-OH, disulfide bond, AgOTf/anisole/TFA, then DMSO/HCl, 50% DMSO-1N HCl, 2 steps
  ring closure, yield after HPLC: 68%

## CC(C)C[C@@H]1NC(=O)[C@H](c2ccccc2)NC(=O)[C@H](CCS(C)(=O)=O)NC(=O)[C@H](C2CCCCC2)NC(=O)[C@@H](N)CSSC[C@H](C(=O)O)NC1=O [C*ChgMet(O2)PhgLdC*]
From H-Cys(Acm)-Chg-Met(O2)-Phg-Leu-dCys(Acm)-OH, disulfide bond, AgOTf/anisole/TFA, then DMSO/HCl, 50% DMSO-1N HCl, 2 steps
  ring closure, yield after HPLC: 42%

## CC(C)C[C@@H]1NC(=O)[C@H](Cc2c[nH]cn2)NC(=O)[C@H](CC(=O)O)NC(=O)[C@H](C(C)(C)C)NC(=O)[C@@H](N)CSSC[C@@H](C(=O)O)NC1=O [C*TleDHLC*]
From H-Cys(Acm)-Tle-Asp-His-Leu-Cys(Acm)-OH, disulfide bond, AgOTf/anisole/TFA, then DMSO/HCl, 50% DMSO-1N HCl, 2 steps
  ring closure, yield after HPLC: 69%

## CC[C@H](C)[C@@H]1NC(=O)[C@@H](N)CSSC[C@@H](C(=O)O)NC(=O)[C@H](CC(C)C)NC(=O)[C@H](Cc2c[nH]c3ccccc23)NC(=O)[C@H](CC(=O)O)NC1=O [C*IDWLC*]
From H-Cys(Acm)-Ile-Asp-Trp-Leu-Cys(Acm)-OH, disulfide bond, AgOTf/anisole/TFA, then DMSO/HCl, 50% DMSO-1N HCl, 2 steps
  ring closure, yield after HPLC: 47%

## D(CO—)ChgMet(O2)PhgLDpr(NH—)
Amide bond, with chain assembly
  ring closure, yield after HPLC: 7%

## CC[C@H](C)[C@@H]1NC(=O)[C@@H](N)CSSC[C@@H](C(=O)O)NC(=O)[C@H](CC(C)C)NC(=O)[C@H](Cc2ccccc2)NC(=O)[C@H](CC(=O)O)NC1=O [C*IDFLC*]
From H-Cys(Acm)-Ile-Asp-Phe-Leu-Cys(Acm)-OH, disulfide bond, AgOTf/anisole/TFA, then DMSO/HCl, 50% DMSO-1N HCl, 2 steps
  ring closure, yield after HPLC: 50%

## CC[C@H](C)[C@@H]1NC(=O)[C@@H](N)CSSC[C@@H](C(=O)O)NC(=O)[C@@H](c2ccccc2)NC(=O)[C@H](Cc2c[nH]cn2)NC(=O)[C@H](CC(=O)O)NC1=O [C*IDHdPhgC*]
From H-Cys(Acm)-Ile-Asp-His-dPhg-Cys(Acm)-OH, disulfide bond, AgOTf/anisole/TFA, then DMSO/HCl, 50% DMSO-1N HCl, 2 steps
  ring closure, yield after HPLC: 37%

## CC[C@H](C)[C@@H]1NC(=O)[C@@H](N)CSSC[C@@H](C(=O)O)NC(=O)[C@H](CC(C)C)NC(=O)[C@H](Cc2c[nH]cn2)NC(=O)[C@H](CC(=O)O)NC1=O [C*IDHLC*]
From H-Cys(Acm)-Ile-Asp-His-Leu-Cys(Acm)-OH, disulfide bond, AgOTf/anisole/TFA, then DMSO/HCl, 50% DMSO-1N HCl, 0.48 mM, 2 steps
  ring closure, yield after HPLC: 73%

## CC(C)C[C@@H]1NC(=O)[C@H](Cc2c[nH]cn2)NC(=O)[C@H](CC(=O)O)NC(=O)[C@H](c2ccccc2)NC(=O)[C@@H](N)CSSC[C@@H](C(=O)O)NC1=O [C*PhgDHLC*]
From H-Cys(Acm)-Phg-Asp-His-Leu-Cys(Acm)-OH, disulfide bond, AgOTf/anisole/TFA, then DMSO/HCl, 50% DMSO-1N HCl, 2 steps
  ring closure, yield after HPLC: 64%

## CC(C)C[C@@H]1NC(=O)[C@@H](Cc2ccccc2)NC(=O)[C@H](CCS(C)(=O)=O)NC(=O)[C@H](C2CCCCC2)NC(=O)[C@@H](N)CSSC[C@@H](C(=O)O)NC1=O [C*ChgMet(O2)dFLC*]
From H-Cys(Acm)-Chg-Met(O2)-dPhe-Leu-Cys(Acm)-OH, disulfide bond, AgOTf/anisole/TFA, then DMSO/HCl, 50% DMSO-1N HCl, 2 steps
  ring closure, yield after HPLC: 26%

## CC[C@H](C)[C@@H]1NC(=O)[C@@H](N)CSSC[C@@H](C(=O)O)NC(=O)[C@H](CC(C)C)NC(=O)[C@H](C(C)(C)C)NC(=O)[C@H](CC(=O)O)NC1=O [C*IDTleLC*]
From H-Cys(Acm)-Ile-Asp-Tle-Leu-Cys(Acm)-OH, disulfide bond, AgOTf/anisole/TFA, then DMSO/HCl, 50% DMSO-1N HCl, 2 steps
  ring closure, yield after HPLC: 23%

## CC[C@H](C)[C@@H]1NC(=O)[C@@H](N)CSSC[C@@H](C(=O)O)NC(=O)[C@H](CC(C)C)NC(=O)[C@H](Cc2ccccn2)NC(=O)[C@H](CC(=O)O)NC1=O [C*IDAla(2-Pyr)LC*]
From H-Cys(Acm)-Ile-Asp-Ala(2-Pyr)-Leu-Cys(Acm)-OH, disulfide bond, AgOTf/anisole/TFA, then DMSO/HCl, 50% DMSO-1N HCl, 2 steps
  ring closure, yield after HPLC: 56%

## CC[C@H](C)[C@@H]1NC(=O)[C@@H](N)CSSC[C@@H](C(N)=O)NC(=O)[C@H](CC(C)C)NC(=O)[C@H](Cc2c[nH]cn2)NC(=O)[C@H](CC(=O)O)NC1=O [C*IDHLC*—NH2]
From H-Cys(Acm)-Ile-Asp-His-Leu-Cys(Acm)-NH2, disulfide bond, AgOTf/anisole/TFA, then DMSO/HCl, 50% DMSO-1N HCl, 2 steps
  ring closure, yield after HPLC: 58%

## CC[C@H](C)[C@@H]1NC(=O)[C@@H](N)CSSC[C@@H](C(=O)O)NC(=O)[C@@H](CC(C)C)NC(=O)[C@H](Cc2c[nH]cn2)NC(=O)[C@H](CC(=O)O)NC1=O [C*IDHdLC*]
From H-Cys(Acm)-Ile-Asp-His-dLeu-Cys(Acm)-OH, disulfide bond, AgOTf/anisole/TFA, then DMSO/HCl, 50% DMSO-1N HCl, 2 steps
  ring closure, yield after HPLC: 51%

## CC(C)C[C@@H]1NC(=O)[C@H](Cc2c[nH]cn2)NC(=O)[C@H](CC(=O)O)NC(=O)[C@@H](c2ccccc2)NC(=O)[C@@H](N)CSSC[C@@H](C(=O)O)NC1=O [C*dPhgDHLC*]
From H-Cys(Acm)-dPhg-Asp-His-Leu-Cys(Acm)-OH, disulfide bond, AgOTf/anisole/TFA, then DMSO/HCl, 50% DMSO-1N HCl, 2 steps
  ring closure, yield after HPLC: 55%

## C*IDYLC*
Disulfide bond, K3[Fe(CN)6]/NH3 pH 7.5-8, water, 0.43 mM
  ring closure, yield after HPLC: 61%

## CC(C)C[C@@H]1NC(=O)[C@H](Cc2c[nH]cn2)NC(=O)[C@H](CC(=O)O)NC(=O)[C@@H]2Cc3ccccc3CN2C(=O)[C@@H](N)CSSC[C@@H](C(=O)O)NC1=O [C*TicDHLC*]
From H-Cys(Acm)-Tic-Asp-His-Leu-Cys(Acm)-OH, disulfide bond, AgOTf/anisole/TFA, then DMSO/HCl, 50% DMSO-1N HCl, 2 steps
  ring closure, yield after HPLC: 30%

## CC(C)C[C@@H]1NC(=O)[C@H](Cc2c[nH]cn2)NC(=O)[C@H](CC(=O)O)NC(=O)[C@H](C(C)C)NC(=O)[C@@H](N)CSSC[C@@H](C(=O)O)NC1=O [C*VDHLC*]
From H-Cys(Acm)-Val-Asp-His-Leu-Cys(Acm)-OH, disulfide bond, AgOTf/anisole/TFA, then DMSO/HCl, 50% DMSO-1N HCl, 2 steps
  ring closure, yield after HPLC: 75%

## CC[C@H](C)[C@@H]1NC(=O)[C@H](Cc2ccccc2)NC(=O)[C@H](CC(=O)O)NC(=O)[C@H]([C@@H](C)CC)NC(=O)[C@@H](N)CSSC[C@@H](C(=O)O)NC1=O [C*IDFIC*]
From H-Cys(Acm)-Ile-Asp-Phe-Ile-Cys(Acm)-OH, disulfide bond, AgOTf/anisole/TFA, then DMSO/HCl, 50% DMSO-1N HCl, 2 steps
  ring closure, yield after HPLC: 37%

## CC[C@H](C)[C@@H]1NC(=O)[C@@H](N)CSSC[C@@H](C(=O)O)NC(=O)[C@H](CC(C)C)NC(=O)[C@H](Cc2c[nH]cn2)NC(=O)[C@H](CC(N)=O)NC1=O [C*INHLC*]
From H-Cys(Acm)-Ile-Asn-His-Leu-Cys(Acm)-OH, disulfide bond, AgOTf/anisole/TFA, then DMSO/HCl, 50% DMSO-1N HCl, 2 steps
  ring closure, yield after HPLC: 85%

## CC(C)C[C@@H]1NC(=O)[C@H](CO)NC(=O)[C@H](CC(=O)O)NC(=O)[C@@H](CC(C)C)NC(=O)[C@@H](N)CSSC[C@@H](C(=O)O)NC1=O [C*dLDSLC*]
From H-Cys(Acm)-dLeu-Asp-Ser-Leu-Cys(Acm)-OH, disulfide bond, AgOTf/anisole/TFA, then DMSO/HCl, 50% DMSO-1N HCl, 2 steps
  ring closure, yield after HPLC: 77%

## CC[C@H](C)[C@@H]1NC(=O)[C@@H](N)CSSC[C@@H](C(=O)O)NC(=O)[C@H](CC(C)C)NC(=O)[C@H](Cc2c[nH]cn2)NC(=O)[C@H](COC)NC1=O [C*IS(OMe)HLC*]
From H-Cys(Acm)-Ile-Ser(OMe)-His-Leu-Cys(Acm)-OH, disulfide bond, AgOTf/anisole/TFA, then DMSO/HCl, 50% DMSO-1N HCl, 2 steps
  ring closure, yield after HPLC: 52%

## CC[C@H](C)[C@@H]1NC(=O)[C@@H](N)CSSC[C@@H](C(=O)O)NC(=O)[C@H](CC(C)C)NC(=O)[C@H](C)NC(=O)[C@H](CC(=O)O)NC1=O [C*IDALC*]
From H-Cys(Acm)-Ile-Asp-Ala-Leu-Cys(Acm)-OH, disulfide bond, AgOTf/anisole/TFA, then DMSO/HCl, 50% DMSO-1N HCl, 2 steps
  ring closure, yield after HPLC: 52%

## CC[C@H](C)[C@@H]1NC(=O)[C@@H](NC(C)=O)CSSC[C@@H](C(=O)O)NC(=O)[C@H](CC(C)C)NC(=O)[C@H](Cc2c[nH]cn2)NC(=O)[C@H](CC(=O)O)NC1=O [AcC*IDHLC*]
From Ac-Cys(Acm)-Ile-Asp-His-Leu-Cys(Acm)-OH, disulfide bond, AgOTf/anisole/TFA, then DMSO/HCl, 50% DMSO-1N HCl, 2 steps
  ring closure, yield after HPLC: 68%

## CC[C@H](C)[C@@H]1NC(=O)[C@@H](N)CSSC[C@@H](C(=O)O)NC(=O)[C@H](c2ccccc2)NC(=O)[C@H](Cc2c[nH]cn2)NC(=O)[C@H](CC(=O)O)NC1=O [C*IDHPhgC*]
From H-Cys(Acm)-Ile-Asp-His-Phg-Cys(Acm)-OH, disulfide bond, AgOTf/anisole/TFA, then DMSO/HCl, 50% DMSO-1N HCl, 2 steps
  ring closure, yield after HPLC: 37%

## CC[C@H](C)[C@@H]1NC(=O)[C@@H](N)CSSC[C@@H](C(=O)O)NC(=O)[C@H](CC(C)C)NC(=O)[C@H](Cc2c[nH]cn2)NC(=O)[C@H](CCO)NC1=O [C*IHseHLC*]
From H-Cys(Acm)-Ile-Hse-His-Leu-Cys(Acm)-OH, disulfide bond, AgOTf/anisole/TFA, then DMSO/HCl, 50% DMSO-1N HCl, 2 steps
  ring closure, yield after HPLC: 56%

## CC[C@H](C)[C@@H]1NC(=O)[C@@H](N)CSSC[C@@H](C(=O)OC)NC(=O)[C@H](CC(C)C)NC(=O)[C@H](Cc2c[nH]cn2)NC(=O)[C@H](CC(=O)O)NC1=O [C*IDHLC—OMe*]
From H-Cys(Acm)-Ile-Asp-His-Leu-Cys(Acm)-OMe, disulfide bond, AgOTf/anisole/TFA, then DMSO/HCl, 50% DMSO-1N HCl, 2 steps
  ring closure, yield after HPLC: 35%
